{"source": "patent US20020090619A1", "about": "“Methods for identifying mitochondrial divalent cation transporters” (priority 2000, published 2002)", "assay": "ETH 129 mediated cation transport into Quin-2 loaded POPC vesicles", "type": "biochemical", "design": "slope of log Ca2+ transport rate vs ΔΨ: unit not given here", "conditions": "for SlopeETH 129: log rate vs log ETH 129; for SlopeMe: log rate vs log cation concentration, FIG. 8B", "procedure": "Unilamellar vesicles loaded with Quin-2 were prepared from 1-palmitoyl-2-oleoyl-sn-glycerophosphatidylcholine (POPC) by freeze-thaw extrusion (Erdahl et al., 1994 Biophys. J. 66:1678; Erdahl et al., 1995 Biophys. J. 69:2350). The formation medium contained 5 mM Quin-2 (K+), 10 mM Hepes (K+), pH 7.00, and 100 mM KCl. A high internal K+ concentration was sought to allow the generation of membrane potentials of varying magnitude (see below). The preparations obtained were applied to Sephadex™ G-50 mini-columns (Pharmacia, Piscataway N.J.) and eluted by low speed centrifugation (Fry et al., 1978 Anal. Biochem. 90:809), to replace the external medium with a 10 mM Hepes buffer (Na+), pH 7.00 (Erdahl et al., 1994 Biophys. J. 66:1678; Erdahl et al., 1995 Biophys. J. 69:2350). The nominal concentration of POPC in final preparations was determined as lipid phosphorus (Bartlett, 1959 J Biol. Chem. 234:466) and was near 80 mM. The average diameter of these vesicles was 71 nm as determined by freeze-fracture electron microscopy (Chapman et al., 1990 Chem. Phys. Lipids 55:73). They contained entrapped K+ at approximately 125 mM, as determined by atomic absorption spectroscopy, and Quin-2 at approximately 6 mM. The latter value was determined by titrating lysed vesicles with a standard solution of CaCl2 and was about one third of the expected value (Erdahl et al., 1995 Bipohys. J. 69:3250). The high solute level in the formation medium reduced the efficiency of Quin-2 entrapment by reducing the effectiveness of a freeze-thaw driven solute concentrating mechanism that normally elevates the internal concentrations of solutes, relative to the external medium (Chapman et al., 1990 Chem. Phys. Lipids 55:73; Chapman et al., 1990 Chem. Phys. Lipids 60:201).\nPOPC vesicles containing Quin-2 were utilized at a nominal phospholipid concentration of 1.0 mM, and at 25° C. The external medium contained polyvalent cation salts as described below, 100 mM NaCl, or mixtures of NaCl and KCl totaling […], and 10 mM Hepes, pH 7.00, unless otherwise noted. The medium pH was adjusted with NaOH that had been passed over Chelex 100 columns to remove contaminating cations (Erdahl et al., 1994 Biophys. J. 66:1678). In most cases an inside negative membrane electrical potential was present during the experiments. This was generated by the presence of 0.5 μM valinomycin (Val), which transports K+ out of the vesicles electrogenically (Erdahl et al., 1994 Biophys. J. 66:1678). The magnitude of the potential was controlled by varying the concentration ratio of Na+ to K+ in the external medium. A TPP+electrode was used to measure the potential (Broekemeier et al, 1998 Biochem. 37:13059), and thereby to verify that the calculated values were obtained. For these purposes the incubation medium contained 2.0 μM TPP.Cl and the entrapped volume was taken to be 2.02 μl/ml at a nominal POPC concentration of 1.0 mM (Chapman et al., 1990 Chem. Phys. Lipids 55:73).\nVal was omitted when an imposed membrane potential was not desired, or in some cases 5 μM of the protonophore carbonyl cyanide m-chlorophenylhydrazone (CCP) was present instead of Val.\nThe transport of polyvalent cations was monitored by difference absorbance measurements which detected formation of the Quin-2:cation complex within the vesicle lumen. An Aminco DW2a spectrophotometer operated in the dual wavelength mode was employed. In addition, an Oriel No. 59800 band pass filter was used between the cuvette and the beam scrambler-photomultiplier assembly to prevent detection of the fluorescent light emitted by Quin-2. The sample wavelength for all cations was 264 nm. The reference wavelengths were at an isosbestic point in the Quin-2/Quin-2:cation complex difference spectrum of interest. These wavelengths varied slightly from cation to cation, as previously described (Erdahl et al., 1996 Biochem. 35:13817). […]", "key": {"[1]": {"conditions": "5.0 μM ETH 129, 30 μM CaCl2, Val, FIG. 3B"}}, "data": [{"smiles": "O=C(COCC(=O)N(C1CCCCC1)C1CCCCC1)N(C1CCCCC1)C1CCCCC1", "note": "[ETH 129]", "values": [{"measurement": "slope of log rate vs. log Ca2+ concentration", "setting": "5.0 μM ETH 129, 0.5 μM Val, FIG. 7B", "value": 0.7}, {"measurement": "Ca2+ transport rate at zero potential (extrapolated)", "setting": "[1]", "value": 0.41, "unit": "nM/s"}, {"measurement": "slope of log Ca2+ transport rate vs ΔΨ", "setting": "[1]", "value": 0.12}, {"measurement": "Ca2+ transport rate when CCP was used to eliminate an opposing potential", "setting": "5.0 μM ETH 129, 100 μM CaCl2, 5.0 μM CCP, FIG. 2C", "value": 0.88, "unit": "nM/s"}, {"measurement": "Selectivity, Ca/Me", "setting": "10^−2.0 M Cations, Me = Ca^2+", "value": "≡1.0"}, {"measurement": "Selectivity, Ca/Me", "setting": "10^−2.0 M Cations, Me = Co^2+", "value": 53}, {"measurement": "Selectivity, Ca/Me", "setting": "10^−2.0 M Cations, Me = La^3+", "value": 5.1}, {"measurement": "Selectivity, Ca/Me", "setting": "10^−2.0 M Cations, Me = Mn^2+", "value": 59}, {"measurement": "Selectivity, Ca/Me", "setting": "10^−2.0 M Cations, Me = Ni^2+", "value": 55}, {"measurement": "Selectivity, Ca/Me", "setting": "10^−2.0 M Cations, Me = Sr^2+", "value": 2.8}, {"measurement": "Selectivity, Ca/Me", "setting": "10^−2.0 M Cations, Me = Zn^2+", "value": 2.3}, {"measurement": "Selectivity, Ca/Me", "setting": "10^−3 5 M Cations, Me = Ca^2+", "value": "≡1.0"}, {"measurement": "Selectivity, Ca/Me", "setting": "10^−3 5 M Cations, Me = Co^2+", "value": 9.9}, {"measurement": "Selectivity, Ca/Me", "setting": "10^−3 5 M Cations, Me = La^3+", "value": 0.44}, {"measurement": "Selectivity, Ca/Me", "setting": "10^−3 5 M Cations, Me = Mn^2+", "value": 8.9}, {"measurement": "Selectivity, Ca/Me", "setting": "10^−3 5 M Cations, Me = Ni^2+", "value": 8.6}, {"measurement": "Selectivity, Ca/Me", "setting": "10^−3 5 M Cations, Me = Sr^2+", "value": 2.9}, {"measurement": "Selectivity, Ca/Me", "setting": "10^−3 5 M Cations, Me = Zn^2+", "value": 2.6}, {"measurement": "Selectivity, Ca/Me", "setting": "10^−5.0 M Cations, Me = Ca^2+", "value": "≡1.0"}, {"measurement": "Selectivity, Ca/Me", "setting": "10^−5.0 M Cations, Me = Co^2+", "value": 1.6}, {"measurement": "Selectivity, Ca/Me", "setting": "10^−5.0 M Cations, Me = La^3+", "value": 0.14}, {"measurement": "Selectivity, Ca/Me", "setting": "10^−5.0 M Cations, Me = Mn^2+", "value": 1.1}, {"measurement": "Selectivity, Ca/Me", "setting": "10^−5.0 M Cations, Me = Ni^2+", "value": 1.1}, {"measurement": "Selectivity, Ca/Me", "setting": "10^−5.0 M Cations, Me = Sr^2+", "value": 1.0}, {"measurement": "Selectivity, Ca/Me", "setting": "10^−5.0 M Cations, Me = Zn^2+", "value": 0.9}, {"measurement": "slope of log rate vs. log ionophore concentration", "setting": "Ca2+ 30 μM, Val, FIG. 6B", "value": 2.8}, {"measurement": "selectivity sequence among the divalent cations", "setting": "FIG. 8", "value": "Ca^2+>Zn^2+≈Sr^2+>Co2+≈Ni^2+≈Mn^2+"}, {"measurement": "acceleration of Ca2+ transport per 59 mV increase in ΔΨ", "setting": "equivalent of the slope value, FIG. 3B", "value": 3.3, "unit": "fold"}, {"measurement": "SlopeETH 129", "setting": "cation Ca^2+ 1.0 mM", "value": 1.5}, {"measurement": "SlopeETH 129", "setting": "cation Co^2+ 1.0 mM", "value": 0.55}, {"measurement": "SlopeETH 129", "setting": "cation Mn^2+ 1.0 mM", "value": 0.85}, {"measurement": "SlopeETH 129", "setting": "cation Ni^2+ 1.0 mM", "value": 0.78}, {"measurement": "SlopeETH 129", "setting": "cation Sr^2+ 1.0 mM", "value": 2.0}, {"measurement": "SlopeMe", "setting": "cation Ca^2+", "value": 0.65}, {"measurement": "SlopeMe", "setting": "cation Co^2+", "value": 0.11}, {"measurement": "SlopeMe", "setting": "cation La^3+", "value": "nonlin"}, {"measurement": "SlopeMe", "setting": "cation Mn^2+", "value": 0.04}, {"measurement": "SlopeMe", "setting": "cation Ni^2+", "value": 0.05}, {"measurement": "SlopeMe", "setting": "cation Sr^2+", "value": 0.57}, {"measurement": "SlopeMe", "setting": "cation Zn^2+", "value": 0.58}, {"measurement": "effect of ETH 129 alone on rate of Ca2+ permeation", "setting": "no Val or CCP, FIG. 2A", "value": "only a modest effect"}]}]}
